# Reference: ChEMBL document CHEMBL1149746, “Synthesis of ellagic acid O-alkyl derivatives and isolation of ellagic acid as a tetrahexanoyl derivative from Fragaria ananassa” (J Nat Prod, 1992)
# The source made the active and inactive calls. The rule behind the calls is not given here.
# System: Mus musculus
# Test: Anticarcinogenic activity in A/J mouse assessed as inhibition of Benzo(a)pyrene-induced tumorigenesis at 0.4 g/kg in diet for 21 days by mouse lung tumor inhibition study
# Type: functional, organism-based
row,Structure (SMILES),Activity
1,CC(=O)OC[C@H]1O[C@@H](Oc2c(OC(C)=O)cc3c(=O)oc4c(O[C@@H]5O[C@H](COC(C)=O)[C@@H](OC(C)=O)[C@H](OC(C)=O)[C@H]5OC(C)=O)c(OC(C)=O)cc5c(=O)oc2c3c45)[C@H](OC(C)=O)[C@@H](OC(C)=O)[C@@H]1OC(C)=O,Active
2,O=c1oc2c(O)c(O)cc3c(=O)oc4c(O)c(O)cc1c4c23,Active
3,CCCCCCCCOc1c(OC(=O)CCCCC)cc2c(=O)oc3c(OCCCCCCCC)c(OC(=O)CCCCC)cc4c(=O)oc1c2c34,Active
